# Test results as given in ChEMBL document CHEMBL5725899, “Benzofurans substituted with primary benzamide as HCV inhibitors” (2018).
# Test: HCV Replicon Luciferase Assay: To evaluate compound efficacy, titrated compounds were transferred to sterile 384-well tissue culture treated plates, and the plates were seeded with HCV replicon cells (50 μL at a density of 2.4×10^3 cells/well) in DMEM containing 4% FBS (final DMSO concentration at 0.5%). After 3 days incubation at 37° C., cells were analyzed for Renilla Luciferase activity using the EnduRen substrate (Promega cat #E6485) according to the manufacturer's directions. Briefly, the EnduRen substrate was diluted in DMEM and then added to the plates to a final concentration of 7.5 μM. The plates were incubated for at least 1 h at 37° C. then read on a Viewlux Imager (PerkinElmer) using a luminescence program. The 50% effective concentration (EC50) was calculated using the four-parameter logistic formula noted above.To assess cytotoxicity of compounds, Cell Titer-Blue (Promega) was added to the EnduRen-containing plates and incubated for at least 4 hrs at 37° C. The fluorescence signal from each well was read using a Viewlux Imager. All CC50 values were calculated using the four-parameter logistic formula.
# Details: 72 h
compound,measurement,value
CNC(=O)c1c(-c2ccc(F)cc2)oc2cc(N(CCF)S(C)(=O)=O)c(-c3cccc(C(=O)N[C@H](COC)C4CC4)c3)cc12,EC50,< 100 nM
CNC(=O)c1c(-c2ccc(F)cc2)oc2cc(N(CCF)S(C)(=O)=O)c(-c3cccc(C(=O)N[C@@H](COC)C4CC4)c3)cc12,EC50,< 100 nM
